From ChEMBL document CHEMBL1201862, “PubChem BioAssay data set” (2004) come the findings set out here.

Among the test systems are SN12C; SW-620; A549; EKVX; NCI-H522; UACC-257; UACC-62; NCI-H23; HOP-92; MDA-MB-231; RPMI-8226; COLO 205; DU-145; CAKI-1; PC-3; OVCAR-3; U-251; MOLT-4; SR.
Common to all, as to assay: DTP human tumour cell line panel, 48 h

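Interpolation was linear, between the two tested concentrations surrounding the appropriate level; five concentrations were tested over 48 hours in 96-well plates. The concentration for 50% growth inhibition is given as GI50.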 Calls of active or inactive are those of the source. Rule as the data show it: active = GI50 up to about 1.1 µM and inactive = higher.

As usually defined, the GI50 is the concentration at which growth is held to half of that of the control.

With `CC(=O)O[C@@H]1C[C@@]23C[C@@]24CC[C@H](OC2OCC(O)C(O)C2O)C(C)(C)[C@@H]4CC=C3[C@]2(C)C[C@@H]3OC4(C[C@@H](C)[C@@H]3[C@@]12C)OC(O)[C@@]1(C)O[C@@H]41` (some centres not stated), the GI50 in the test on SN12C was 31.5 µM (inactive); with SW-620 it was 36.5 µM (inactive); with A549 it was 48.9 µM (inactive); with EKVX, 33.4 µM (inactive); with NCI-H522, 23 µM (inactive); with UACC-257, 26.9 µM (inactive). Besides, the GI50 was 21.7 µM (inactive) in the test on UACC-62; 34 µM (inactive) in the test with NCI-H23; 54.3 µM (inactive) with HOP-92; 21.1 µM (inactive) in the test on MDA-MB-231; 19.6 µM (inactive) with RPMI-8226; 21.3 µM (inactive) in the test on COLO 205. In addition, the GI50 is 43.2 µM (inactive) with DU-145; 46.1 µM (inactive) in the test on CAKI-1; 22.9 µM (inactive) in the test on PC-3; 12.1 µM (inactive) with OVCAR-3; 30.7 µM (inactive) in the test on U-251.
As to `COC(=O)N/N=C(/CCC(=O)Nc1ccc(C)c(C)c1)CC(=O)C(C)(C)C`, the GI50 with SN12C, in the test with MOLT-4, in the test with SW-620, in the test with A549, in the test with EKVX and in the test with NCI-H522 was > 100 µM (inactive) throughout. The GI50 with UACC-257, in the test with UACC-62, in the test on NCI-H23, with RPMI-8226, in the test on COLO 205 and in the test with CAKI-1 was > 100 µM (inactive) throughout. In addition, the GI50 in the test with OVCAR-3 and with U-251 was > 100 µM (inactive) each time.
On to `OCc1cc2c(cn1)[nH]c1ccc(NCc3ccccc3)cc12`, for which the GI50 in the test on SN12C was 34.9 µM (inactive); in the test with MOLT-4 it was 17.5 µM (inactive); in the test on SW-620, 27.4 µM (inactive); with A549 it was 28.1 µM (inactive); in the test on EKVX it was 37.1 µM (inactive); in the test on NCI-H522 it was 15.7 µM (inactive). Further, the GI50 in the test with UACC-257 is 23.3 µM (inactive); in the test on UACC-62, 17.2 µM (inactive); with NCI-H23, 20 µM (inactive); in the test with HOP-92, 15.9 µM (inactive); in the test on RPMI-8226, 11 µM (inactive); with COLO 205, 17.7 µM (inactive). Besides, the GI50 in the test on CAKI-1 is 27.4 µM (inactive); in the test with OVCAR-3, 19.4 µM (inactive); in the test on U-251, 38.9 µM (inactive).
Turning to `N#Cc1ccc(Oc2nc3ccccc3nc2-c2ccccc2)cc1`, the GI50 with SN12C, in the test on MOLT-4, in the test on SW-620, in the test on EKVX, with NCI-H522 and in the test on UACC-257 was > 100 µM (inactive) throughout. Also, the GI50 in the test on UACC-62, in the test on NCI-H23, with HOP-92, in the test with MDA-MB-231, in the test on RPMI-8226 and with COLO 205 was > 100 µM (inactive) each time. Moreover, the GI50 with DU-145, in the test on CAKI-1, with PC-3, in the test on OVCAR-3 and in the test on U-251 was > 100 µM (inactive) each time.
On to `CCC(C#N)NCc1ccc(CNC(C#N)CC)cc1` (configuration not stated), for which the GI50 in the test on SN12C, in the test with MOLT-4, in the test on SW-620, with A549, in the test with EKVX and in the test with NCI-H522 was > 100 µM (inactive) throughout. Also, the GI50 is > 100 µM (inactive) with UACC-257; 86.5 µM (inactive) in the test on UACC-62; > 100 µM (inactive) with NCI-H23; > 100 µM (inactive) in the test with HOP-92; > 100 µM (inactive) in the test on MDA-MB-231; > 100 µM (inactive) with COLO 205. Also, the GI50 in the test on DU-145, with CAKI-1, in the test on PC-3, in the test on OVCAR-3 and in the test with U-251 was > 100 µM (inactive) each time.
As to `CCOC(=O)Cn1nnc2ccc(Nc3nc4ccccc4nc3-c3ccccc3)cc21`, the GI50 with SN12C, in the test with MOLT-4, with SW-620, in the test with A549, in the test with EKVX and in the test on NCI-H522 was > 100 µM (inactive) throughout. Moreover, the GI50 in the test on UACC-257 was 70.5 µM (inactive); in the test with UACC-62, > 100 µM (inactive); in the test with NCI-H23, > 100 µM (inactive); in the test with HOP-92, > 100 µM (inactive); with RPMI-8226, > 100 µM (inactive); with COLO 205, > 100 µM (inactive). Moreover, the GI50 in the test with DU-145 is 11 µM (inactive); with CAKI-1, > 100 µM (inactive); in the test on PC-3 it was > 100 µM (inactive); with OVCAR-3 it was 60.7 µM (inactive); with U-251, 71.4 µM (inactive); in the test on SR it was > 100 µM (inactive).
For the molecule `CCOC(=O)C1=C(C)N(c2ccc(C)cc2)C2=C(C(=O)N(c3ccccc3)C2c2ccccc2)C1c1ccccc1` (configuration not stated), the GI50 with SN12C was > 25 µM (inactive); in the test with MOLT-4, 7.82 µM (inactive); with SW-620 it was > 25 µM (inactive); in the test on A549, 10.7 µM (inactive); with EKVX, > 25 µM (inactive); with UACC-257, > 25 µM (inactive). Further, the GI50 was 17.2 µM (inactive) with UACC-62; 11.9 µM (inactive) in the test with NCI-H23; 14 µM (inactive) in the test with RPMI-8226; > 25 µM (inactive) in the test with COLO 205; > 25 µM (inactive) in the test on OVCAR-3; > 25 µM (inactive) in the test with U-251. For the same molecule, in the test on SR, the GI50 is 17.7 µM (inactive).
Take `Cn1c(=O)n(-c2c3ccccc3c(Cl)c3ccccc23)n(C(C)(C)C)c1=O`: the GI50 in the test with SN12C, in the test on MOLT-4, in the test on SW-620, in the test on A549, with EKVX and in the test on NCI-H522 was > 100 µM (inactive) in each case. Moreover, the GI50 was > 100 µM (inactive) in the test with UACC-257; > 100 µM (inactive) in the test with UACC-62; > 100 µM (inactive) in the test with NCI-H23; 57.7 µM (inactive) with HOP-92; 97.1 µM (inactive) with MDA-MB-231; > 100 µM (inactive) in the test with COLO 205. Moreover, the GI50 in the test on DU-145, in the test on CAKI-1, with PC-3, in the test with OVCAR-3 and with U-251 was > 100 µM (inactive) each time.
Turning to `OC1CCCN(C2(c3cccs3)CCCCC2)C1` (configuration not stated), the GI50 with SN12C, in the test on MOLT-4, with SW-620, in the test with EKVX, with NCI-H522 and in the test on UACC-257 was > 100 µM (inactive) in each case. For the same molecule, the GI50 with UACC-62, in the test on NCI-H23, in the test with HOP-92, in the test with MDA-MB-231, in the test with RPMI-8226 and in the test with COLO 205 was > 100 µM (inactive) throughout. Also, the GI50 in the test on DU-145, with CAKI-1, in the test with PC-3, in the test on OVCAR-3 and with U-251 was > 100 µM (inactive) in each case.
As for `COc1cc2c(OC)c3cc(C)oc(=O)c3c(O)c2c(O)c1-c1c(OC)cc2c(OC)c3cc(C)oc(=O)c3c(O)c2c1O`, the GI50 is 20.7 µM (inactive) in the test with SN12C; 15.7 µM (inactive) in the test on MOLT-4; 30 µM (inactive) with SW-620; 19.4 µM (inactive) with A549; 21.9 µM (inactive) in the test with EKVX; 18.7 µM (inactive) in the test on NCI-H522. Also, the GI50 is 20.2 µM (inactive) with UACC-257; 20.9 µM (inactive) with UACC-62; 16.6 µM (inactive) in the test on NCI-H23; 16.1 µM (inactive) in the test with HOP-92; 18.4 µM (inactive) with MDA-MB-231; 17.3 µM (inactive) with RPMI-8226. The GI50 is 33.9 µM (inactive) in the test with DU-145; 15.2 µM (inactive) with CAKI-1; 14 µM (inactive) in the test on PC-3; 16.6 µM (inactive) with OVCAR-3; 15.8 µM (inactive) in the test on U-251.
With `COc1cc(C(=O)Nc2nnc(S(N)(=O)=O)s2)cc(OC)c1OC`, the GI50 in the test with SN12C, in the test with MOLT-4, with SW-620, in the test on A549, in the test with EKVX and in the test with NCI-H522 was > 100 µM (inactive) in each case. For the same molecule, the GI50 is > 100 µM (inactive) with UACC-257; > 100 µM (inactive) in the test on UACC-62; > 100 µM (inactive) in the test on NCI-H23; 65.6 µM (inactive) in the test with HOP-92; > 100 µM (inactive) with MDA-MB-231; > 100 µM (inactive) in the test on RPMI-8226. The GI50 with COLO 205, in the test with DU-145, in the test on CAKI-1, with OVCAR-3, in the test on U-251 and in the test with SR was > 100 µM (inactive) each time.
Turning to `O=C(NC(C(F)(F)F)(C(F)(F)F)P(=O)(c1ccccc1)c1ccccc1)C(C(F)(F)F)C(F)(F)F`, the GI50 in the test on SN12C was 27.9 µM (inactive); in the test on MOLT-4 it was 26.7 µM (inactive); in the test with SW-620, 40.6 µM (inactive); in the test with A549, 34.6 µM (inactive); in the test with EKVX it was > 100 µM (inactive); in the test on NCI-H522, 25.9 µM (inactive). The GI50 was 29.4 µM (inactive) in the test with UACC-257; 56 µM (inactive) with UACC-62; 21.7 µM (inactive) in the test with NCI-H23; 24.2 µM (inactive) with MDA-MB-231; 33.6 µM (inactive) with RPMI-8226; 20.2 µM (inactive) in the test with COLO 205. Besides, the GI50 with DU-145 is > 100 µM (inactive); in the test with CAKI-1 it was 0.0131 µM (active); with PC-3, 27.8 µM (inactive); in the test with OVCAR-3 it was 25.8 µM (inactive); in the test with U-251 it was 36.6 µM (inactive).
